According to patent US8877759B2, “Aminopyrazines as ATR kinase inhibitors” (Vertex Pharnaceuticals Incorporated, priority 2011, dated 2014):

These compounds were tested against T1, full-length ATR (Homo sapiens, UniProt Q13535) (assay: ATR Inhibition Assay (radioactive-phosphate incorporation)). Conditions: not given.
T1 construct: Assays were carried out at 25° C. in the presence of 5 nM full-length ATR
Format: biochemical
Procedure: Compounds were screened for their ability to inhibit ATR kinase using a radioactive-phosphate incorporation assay. Assays were carried out in a mixture of 50 mM Tris/HCl (pH 7.5), 10 mM MgCl2 and 1 mM DTT.
Assays were carried out at 25° C. in the presence of 5 nM full-length ATR. An assay stock buffer solution was prepared containing all of the reagents listed above, with the exception of ATP and the test compound of interest. […] The plate was pre-incubated for 10 minutes at 25° C. and the reaction initiated by addition of 15 μL [γ-33P]ATP (final concentration 10 μM).
The reaction was stopped after […] by the addition of 30 μL 0.1M phosphoric acid containing 2 mM ATP. A multiscreen phosphocellulose filter 96-well plate (Millipore, Cat no. MAPHN0B50) was pretreated with 100 μL 0.2M phosphoric acid prior to the addition of 45 μL of the stopped assay mixture. The plate was washed with 5×200 μL 0.2M phosphoric acid.
After removing mean background values for all of the data points, Ki(app) data were calculated from non-linear regression analysis of the initial rate data using the Prism software package (GraphPad Prism version 3.0cx for Macintosh, GraphPad Software, San Diego Calif., USA).

T1 sequence (Q13535 whole entry): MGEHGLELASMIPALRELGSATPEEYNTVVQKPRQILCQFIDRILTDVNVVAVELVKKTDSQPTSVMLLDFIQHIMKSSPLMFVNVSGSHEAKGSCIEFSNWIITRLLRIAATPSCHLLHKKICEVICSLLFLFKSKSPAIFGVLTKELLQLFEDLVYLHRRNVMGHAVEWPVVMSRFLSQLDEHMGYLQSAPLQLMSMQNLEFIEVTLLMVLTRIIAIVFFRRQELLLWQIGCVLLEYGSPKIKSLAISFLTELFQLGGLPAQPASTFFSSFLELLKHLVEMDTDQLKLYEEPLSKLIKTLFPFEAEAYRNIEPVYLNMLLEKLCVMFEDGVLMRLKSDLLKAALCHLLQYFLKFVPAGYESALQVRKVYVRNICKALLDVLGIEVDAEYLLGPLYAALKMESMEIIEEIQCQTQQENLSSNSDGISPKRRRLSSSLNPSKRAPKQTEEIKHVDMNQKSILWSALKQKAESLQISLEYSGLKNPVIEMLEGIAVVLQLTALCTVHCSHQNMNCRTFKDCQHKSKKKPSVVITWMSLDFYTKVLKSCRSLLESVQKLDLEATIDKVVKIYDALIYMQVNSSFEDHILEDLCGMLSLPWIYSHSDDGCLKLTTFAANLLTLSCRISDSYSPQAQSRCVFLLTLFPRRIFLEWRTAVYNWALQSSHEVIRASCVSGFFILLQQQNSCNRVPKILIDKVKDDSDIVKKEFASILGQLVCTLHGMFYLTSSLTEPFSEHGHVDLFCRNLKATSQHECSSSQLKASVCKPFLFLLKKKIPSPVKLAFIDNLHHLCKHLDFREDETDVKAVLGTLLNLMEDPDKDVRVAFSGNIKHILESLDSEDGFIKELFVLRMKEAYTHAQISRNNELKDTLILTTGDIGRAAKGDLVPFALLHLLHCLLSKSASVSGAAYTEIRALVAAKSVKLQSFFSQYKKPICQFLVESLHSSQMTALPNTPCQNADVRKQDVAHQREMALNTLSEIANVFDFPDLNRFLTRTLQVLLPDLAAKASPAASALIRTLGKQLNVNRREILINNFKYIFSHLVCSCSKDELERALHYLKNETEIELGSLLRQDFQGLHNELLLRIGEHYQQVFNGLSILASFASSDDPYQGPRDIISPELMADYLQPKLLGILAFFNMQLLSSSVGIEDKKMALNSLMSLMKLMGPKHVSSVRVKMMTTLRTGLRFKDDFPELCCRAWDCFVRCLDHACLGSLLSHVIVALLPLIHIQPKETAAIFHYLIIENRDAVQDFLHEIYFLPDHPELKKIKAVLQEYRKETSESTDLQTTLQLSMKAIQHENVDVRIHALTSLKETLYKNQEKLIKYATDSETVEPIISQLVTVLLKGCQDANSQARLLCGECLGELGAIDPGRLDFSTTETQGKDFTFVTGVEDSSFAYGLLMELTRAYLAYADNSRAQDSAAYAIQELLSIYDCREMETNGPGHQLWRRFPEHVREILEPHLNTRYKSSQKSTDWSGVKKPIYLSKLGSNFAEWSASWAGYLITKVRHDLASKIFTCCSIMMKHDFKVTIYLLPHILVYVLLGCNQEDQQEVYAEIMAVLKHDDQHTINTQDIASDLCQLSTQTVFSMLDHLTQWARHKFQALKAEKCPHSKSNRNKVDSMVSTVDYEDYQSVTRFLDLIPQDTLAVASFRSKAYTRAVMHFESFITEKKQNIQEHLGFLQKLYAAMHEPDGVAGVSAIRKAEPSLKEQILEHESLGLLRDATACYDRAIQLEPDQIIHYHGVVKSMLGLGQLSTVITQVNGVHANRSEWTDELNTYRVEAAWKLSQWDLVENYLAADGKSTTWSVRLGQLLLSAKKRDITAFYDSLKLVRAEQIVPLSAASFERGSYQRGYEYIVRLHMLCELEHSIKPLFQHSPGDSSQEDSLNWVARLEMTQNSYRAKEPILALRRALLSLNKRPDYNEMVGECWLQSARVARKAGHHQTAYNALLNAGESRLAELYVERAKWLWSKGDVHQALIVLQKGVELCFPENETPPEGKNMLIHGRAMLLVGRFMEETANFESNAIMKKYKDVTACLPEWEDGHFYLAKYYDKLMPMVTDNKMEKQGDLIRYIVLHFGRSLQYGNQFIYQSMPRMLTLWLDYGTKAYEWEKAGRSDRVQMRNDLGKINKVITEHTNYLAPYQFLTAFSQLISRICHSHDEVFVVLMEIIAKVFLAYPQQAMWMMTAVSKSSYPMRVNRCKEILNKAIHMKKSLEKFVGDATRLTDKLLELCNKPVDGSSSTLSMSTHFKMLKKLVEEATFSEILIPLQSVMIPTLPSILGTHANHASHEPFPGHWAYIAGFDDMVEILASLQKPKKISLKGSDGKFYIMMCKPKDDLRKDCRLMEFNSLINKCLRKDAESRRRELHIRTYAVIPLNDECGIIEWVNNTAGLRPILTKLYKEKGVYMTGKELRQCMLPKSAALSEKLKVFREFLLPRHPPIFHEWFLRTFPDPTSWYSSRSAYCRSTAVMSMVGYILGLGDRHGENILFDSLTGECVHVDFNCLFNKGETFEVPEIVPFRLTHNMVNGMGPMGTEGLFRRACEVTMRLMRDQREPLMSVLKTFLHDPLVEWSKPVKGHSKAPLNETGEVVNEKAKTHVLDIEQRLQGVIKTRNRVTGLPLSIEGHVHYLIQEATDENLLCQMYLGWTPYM

Row | Ki [nM] | SMILES
1 | < 1 | CC(C)(C#N)c1cc(-c2cnc(N)c(-c3nnc(-c4cc5c(s4)CCNC5)o3)n2)ccn1 [Compound I-96]
2 | 5 to 20 | CC(C)(C(=O)NCCN1CCOCC1)c1cc(-c2cnc(N)c(-c3cc(-c4ccccc4)no3)n2)ccn1 [Compound I-21, 2-[4-[5-amino-6-(3-phenylisoxazol-5-yl)pyrazin-2-yl]-2-pyridyl]-2-methyl-N-(2-morpholinoethyl)propanamide]
3 | < 1 | CC(C)(C#N)c1cc(-c2cnc(N)c(-c3nnc(-c4cccc(N5CC[C@@H](N)C5)c4)o3)n2)ccn1 [Compound I-77]
4 | < 1 | N#CCc1cc(-c2cnc(N)c(-c3cc(-c4ccc(CNC5CCOCC5)cc4)no3)n2)ccn1 [Compound I-136]
5 | 20 to 100 | COc1cccc(C)c1-c1cc(-c2nc(-c3ccnc(C4(C#N)CCNCC4)c3)cnc2N)on1 [Compound I-29, 4-[4-[5-amino-6-[3-(2-methoxy-6-methyl-phenyl)isoxazol-5-yl]pyrazin-2-yl]-2-pyridyl]piperidine-4-carbonitrile]
6 | 5 to 20 | CC(C)(C#N)c1cc(-c2cnc(N)c(-c3nnc(-c4cccc(C5CNCCN5)c4)o3)n2)ccn1 (stereo not drawn) [Compound I-58]
7 | < 1 | N#CC1(c2cc(-c3cnc(N)c(-c4cc(-c5cccs5)no4)n3)ccn2)CCNCC1 [Compound I-30, 4-[4-[5-amino-6-[3-(2-thienyl)isoxazol-5-yl]pyrazin-2-yl]-2-pyridyl]piperidine-4-carbonitrile]
8 | < 1 | CC(C)(C#N)c1cc(-c2cnc(N)c(-c3cc(-c4ccc(CNCC5COC5)cc4)no3)n2)ccn1 [Compound I-102]
9 | < 1 | N#CCc1cc(-c2cnc(N)c(-c3nnc(-c4ccc(CNC5CCOCC5)cc4)o3)n2)ccn1 [Compound I-137]
10 | < 1 | CN1CC(Oc2ccc(-c3nnc(-c4nc(-c5ccnc(C(C)(C)C#N)c5)cnc4N)o3)cc2)C1 [Compound I-121]
11 | < 1 | CC(C)(C#N)c1cc(-c2cnc(N)c(-c3nnc(-c4ccc(N5CC(N)C5)cc4)o3)n2)ccn1 [Compound I-123]
12 | < 1 | CC(C)(C#N)c1cc(-c2cnc(N)c(-c3nnc(-c4ccc(N5CC[C@H](N)C5)cc4)o3)n2)ccn1 [Compound I-88]
13 | < 1 | Nc1ncc(-c2ccnc(CO)c2)nc1-c1cc(-c2ccc(CNC3CCOCC3)cc2)no1 [Compound I-135]
14 | < 1 | C[C@H](N)c1ccc(-c2nnc(-c3nc(-c4ccnc(C5(C#N)CCC5)c4)cnc3N)o2)cc1 [Compound I-43, 1-[4-[5-amino-6-[5-[4-[(1S)-1-aminoethyl]phenyl]-1,3,4-oxadiazol-2-yl]pyrazin-2-yl]-2-pyridyl]cyclobutanecarbonitrile]
15 | < 1 | CNCc1ccc(-c2cc(-c3nc(-c4ccnc(C(C)(C)C(=O)N(C)C)c4)cnc3N)on2)cc1 [Compound I-11, 2-[4-[5-amino-6-[3-[4-(methylaminomethyl)phenyl]isoxazol-5-yl]pyrazin-2-yl]-2-pyridyl]-N,N,2-trimethyl-propanamide]
16 | 5 to 20 | CC(C)(C#N)c1nccc(-c2cnc(N)c(-c3cc(-c4ccc(CNCC5COC5)cc4)no3)n2)c1F [Compound I-139]
17 | < 1 | CC(C)(C#N)c1cc(-c2cnc(N)c(-c3cc(-c4ccc(CN[C@H]5CCOC5)cc4)no3)n2)ccn1 [Compound I-97]
18 | 5 to 20 | COCCNC(=O)C(C)(C)c1cc(-c2cnc(N)c(-c3cc(-c4ccccc4)no3)n2)ccn1 [Compound I-38, 2-[4-[5-amino-6-(3-phenylisoxazol-5-yl)pyrazin-2-yl]-2-pyridyl]-N-(2-methoxyethyl)-2-methyl-propanamide]
19 | 20 to 100 | CC(C)(C#N)c1cc(-c2cnc(N)c(-c3nnc(-c4ccc(C5COCCN5)cc4)o3)n2)ccn1 (stereo not drawn) [Compound I-99]
20 | < 1 | CC(C)(C#N)c1cc(-c2cnc(N)c(-c3nnc(-c4cccc(CCN)c4)o3)n2)ccn1 [Compound I-66]
21 | 5 to 20 | CN(C)CCNC(=O)C(C)(C)c1cc(-c2cnc(N)c(-c3cc(-c4ccccc4)no3)n2)ccn1 [Compound I-85]
22 | < 1 | N#CC1(c2cc(-c3cnc(N)c(-c4cc(-c5ccc(CN[C@H]6CCOC6)cc5)no4)n3)ccn2)CCC1 [Compound I-35, 1-[4-[5-amino-6-[3-[4-[[[(3S)-tetrahydrofuran-3-yl]amino]methyl]phenyl]isoxazol-5-yl]pyrazin-2-yl]-2-pyridyl]cyclobutanecarbonitrile]

Same assay, conditions: Ki(app); 5 nM full-length ATR, 10 μM [γ-33P]ATP, 800 μM target peptide, 25° C.

Row | SMILES | ATR Ki
23 | COc1ccccc1-c1cc(-c2nc(-c3ccnc(C4(C#N)CCNCC4)c3)cnc2N)on1 [Compound I-27, 4-[4-[5-amino-6-[3-(2-methoxyphenyl)isoxazol-5-yl]pyrazin-2-yl]-2-pyridyl]piperidine-4-carbonitrile] | +++ (Compounds with a Ki value >5 nM but ≦1 nM are marked with “+++.”)
24 | N#CC1(c2cc(-c3cnc(N)c(-c4cc(-c5ccccc5O)no4)n3)ccn2)CCNCC1 [Compound I-26, 4-[4-[5-amino-6-[3-(2-hydroxyphenyl)isoxazol-5-yl]pyrazin-2-yl]-2-pyridyl]piperidine-4-carbonitrile] | +++ (Compounds with a Ki value >5 nM but ≦1 nM are marked with “+++.”)
25 | CC(C)(C#N)c1cc(-c2cnc(N)c(-c3nnc(-c4ccc(F)cc4F)o3)n2)ccn1 [Compound I-134] | +++ (Compounds with a Ki value >5 nM but ≦1 nM are marked with “+++.”)
26 | CC(C)(C#N)c1cc(-c2cnc(N)c(-c3nnc(-c4ccc(O[C@H]5CCNC5)cc4)o3)n2)ccn1 [Compound I-106] | +++ (Compounds with a Ki value >5 nM but ≦1 nM are marked with “+++.”)
27 | N#CC1(c2cc(-c3cnc(N)c(-c4cc(-c5ccccc5)no4)n3)ccn2)CCNCC1 [Compound I-6, 4-[4-[5-amino-6-(3-phenylisoxazol-5-yl)pyrazin-2-yl]-2-pyridyl]piperidine-4-carbonitrile] | +++ (Compounds with a Ki value >5 nM but ≦1 nM are marked with “+++.”)
28 | N#CC1(c2cc(-c3cnc(N)c(-c4cc(-c5ccc6[nH]ccc6c5)no4)n3)ccn2)CCNCC1 [Compound I-33, 4-[4-[5-amino-6-[3-(1H-indol-5-yl)isoxazol-5-yl]pyrazin-2-yl]-2-pyridyl]piperidine-4-carbonitrile] | +++ (Compounds with a Ki value >5 nM but ≦1 nM are marked with “+++.”)
29 | CC(C)(C#N)c1cc(-c2cnc(N)c(-c3nnc(-c4ccc5c(c4)CNC5)o3)n2)ccn1 [Compound I-81] | +++ (Compounds with a Ki value >5 nM but ≦1 nM are marked with “+++.”)
30 | CC(C)(C#N)c1cc(-c2cnc(N)c(-c3cc(-c4ccc([C@H]5COCCN5)cc4)no3)n2)ccn1 [Compound I-71] | +++ (Compounds with a Ki value >5 nM but ≦1 nM are marked with “+++.”)
31 | CC(C)(c1cc(-c2cnc(N)c(-c3cc(-c4ccccc4)no3)n2)ccn1)S(=O)(=O)C1CCNCC1 [Compound I-23, 5-[2-[1-methyl-1-(4-piperidylsulfonyl)ethyl]-4-pyridyl]-3-(3-phenylisoxazol-5-yl)pyrazin-2-amine] | +++ (Compounds with a Ki value >5 nM but ≦1 nM are marked with “+++.”)
32 | CC(C)(C#N)c1cc(-c2cnc(N)c(-c3nnc(-c4cccc(C5CNC5)c4)o3)n2)ccn1 [Compound I-95] | +++ (Compounds with a Ki value >5 nM but ≦1 nM are marked with “+++.”)
33 | N#CC1(c2cc(-c3cnc(N)c(-c4cc(-c5ccccc5F)no4)n3)ccn2)CCNCC1 [Compound I-28, 4-(4-(5-amino-6-(3-(2-fluorophenyl)isoxazol-5-yl)pyrazin-2-yl)pyridin-2-yl)piperidine-4-carbonitrile] | +++ (Compounds with a Ki value >5 nM but ≦1 nM are marked with “+++.”)
